Reference: PubChem BioAssay (NCI)
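Grown in 96-well plates, cells were treated for 48 hours with each compound at five concentrations. Insufficient inhibition: endpoint recorded as highest concentration tested. TGI: total growth inhibition.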

Key:
Test in all cases: growth of human tumour cells (NCI), 48 h
[1] = test system: MDA-MB-231 breast
[2] = test system: K-562 leukemia
[3] = test system: TK-10 renal
[4] = test system: HCT-15 colon
[5] = test system: LOX IMVI melanoma
[6] = test system: HOP-92 NSCLC
[7] = test system: HOP-62 NSCLC
[8] = test system: COLO 205 colon
[9] = test system: SNB-19 CNS
[10] = test system: SR leukemia
[11] = test system: NCI-H23 lung
[12] = test system: IGROV1 ovarian
[13] = test system: RPMI-8226 leukemia
[14] = test system: M14 melanoma
[15] = test system: NCI-H460 lung
[16] = test system: NCI-H226 lung
[17] = test system: SNB-75 CNS
[18] = test system: ACHN renal
[19] = test system: SK-MEL-2 melanoma
[20] = test system: MDA-N
[21] = test system: EKVX NSCLC
[22] = test system: SK-MEL-5 melanoma
[23] = test system: PC-3 prostate
[24] = test system: CAKI-1 renal
[25] = test system: HCC-2998 colon
[26] = test system: HL-60(TB) leukemia
[27] = test system: HT29 colon
[28] = test system: U251 CNS
[29] = test system: T-47D breast
[30] = test system: 786-0 renal
[31] = test system: SF-539 CNS
[32] = test system: SW-620 colon
[33] = test system: HS 578T breast
[34] = test system: SF-268 CNS
[35] = test system: NCI/ADR-RES ovarian
[36] = test system: OVCAR-5 ovarian
[37] = test system: SN12C renal
[38] = test system: SK-OV-3 ovarian
[39] = test system: MOLT-4 leukemia
[40] = test system: A549 NSCLC
[41] = test system: SF-295 CNS
[42] = test system: UACC-257 melanoma
[43] = test system: KM12 colon
[44] = test system: UO-31 renal
[45] = test system: DU-145 prostate
[46] = test system: OVCAR-3 ovarian
[47] = test system: RXF 393 renal
[48] = test system: BT-549 breast
[49] = test system: CCRF-CEM leukemia
[50] = test system: A498 renal
[51] = test system: NCI-H522 lung
[52] = test system: MCF7 breast
[53] = test system: OVCAR-4 ovarian
[54] = test system: UACC-62 melanoma
[55] = test system: SK-MEL-28 melanoma
[56] = test system: HCT-116 colon
[57] = test system: MDA-MB-435
[58] = test system: OVCAR-8 ovarian

Measured: TGI

Cc1c(C(=O)NNc2ccccc2)n2c(=S)[nH]nc2c2ccccc12
> 100 µM: all assays above
